Reference: ChEMBL document CHEMBL5380862, “Unsymmetrical Phosphodiesters as GPR84 Antagonists with High Blood Exposure for the Treatment of Lung Inflammation” (J Med Chem, 2023)
Calls of active or inactive are those of the source. No cut-off for these calls is given here.

What was measured:
Monocyte [1] = assay: Inhibition of cell migration in 3-hydroxydodecanoic acid-stimulated mouse CD11bpositive Ly6Cpositive monocytes at 0.01 to 1 uM incubated for 1.5 hrs by flow cytometric analysis; assay type: functional, cell-based; conditions: dose 0.01-1 µM
[2] = biological target: Delta-type opioid receptor (Homo sapiens) (UniProt P41143); assay: Antagonist activity at DOR (unknown origin) expressed in CHO-K1 cells co-expressing Galpha16 assessed as inhibition of DPDPE induced calcium response upto 100 uM incubated for 10 mins by calcium mobilization assay; assay type: functional, cell-based
Monocyte [3] = assay: Inhibition of cell migration in 6-n-[…]-stimulated mouse CD11bpositive Ly6Cpositive monocyte at 0.01 to 1 uM incubated for 1.5 hrs by flow cytometric analysis; assay type: functional, cell-based; conditions: dose 0.01-1 µM
[4] = biological target: Beta-3 adrenergic receptor (Homo sapiens) (UniProt P13945); assay: Antagonist activity at ARbeta3 (unknown origin) expressed in HEK293 cells co-expressing Galpha16 assessed as inhibition of Isoproterenol induced calcium response upto 100 uM incubated for 10 mins by calcium mobilization assay; assay type: functional, cell-based
[5] = Drug distribution in mouse lung at 5 mg/kg, po administered as single dose and measured after 0.5 hrs by LC-MS analysis; assay type: ADME, organism-based; conditions: read-out: Drug uptake
[6] = Drug distribution in mouse lung at 5 mg/kg, po administered as single dose and measured after 2 hrs by LC-MS analysis; assay type: ADME, organism-based; conditions: read-out: Drug uptake
[7] = biological target: Kappa-type opioid receptor (Homo sapiens) (UniProt P41145); assay: Antagonist activity at KOR (unknown origin) expressed in HEK293 cells co-expressing Galpha16 assessed as inhibition of U50488 induced calcium response upto 100 uM incubated for 10 mins by calcium mobilization assay; assay type: functional, cell-based
[8] = Drug distribution in mouse liver at 5 mg/kg, po administered as single dose and measured after 0.5 hrs by LC-MS analysis; assay type: ADME, organism-based; conditions: read-out: Drug uptake
[9] = Aqueous solubility of the compound incubated overnight by HPLC-DAD analysis; assay type: physicochemical; conditions: aqueous medium
[10] = AUClast in ICR mouse at 5 mg/kg, po administered as single dose; assay type: ADME, organism-based; parameters: dose 5 mg/kg, route po; conditions: in vivo
[11] = Drug distribution in mouse liver at 5 mg/kg, po administered as single dose and measured after 8 hrs by LC-MS analysis; assay type: ADME, organism-based; conditions: read-out: Drug uptake
[12] = biological target: D(1A) dopamine receptor (Homo sapiens) (UniProt P21728); assay: Antagonist activity at DRD1 (unknown origin) expressed in HEK293 cells co-expressing Galpha16 assessed as inhibition of dopamine induced calcium response upto 100 uM incubated for 10 mins by calcium mobilization assay; assay type: functional, cell-based
[13] = biological target: Beta-2 adrenergic receptor (Homo sapiens) (UniProt P07550); assay: Antagonist activity at ARbeta2 (unknown origin) expressed in HEK293 cells co-expressing Galpha16 assessed as inhibition of Isoproterenol induced calcium response upto 100 uM incubated for 10 mins by calcium mobilization assay; assay type: functional, cell-based
Beta-2 adrenergic receptor (Homo sapiens), sequence (P07550 whole entry, looked up): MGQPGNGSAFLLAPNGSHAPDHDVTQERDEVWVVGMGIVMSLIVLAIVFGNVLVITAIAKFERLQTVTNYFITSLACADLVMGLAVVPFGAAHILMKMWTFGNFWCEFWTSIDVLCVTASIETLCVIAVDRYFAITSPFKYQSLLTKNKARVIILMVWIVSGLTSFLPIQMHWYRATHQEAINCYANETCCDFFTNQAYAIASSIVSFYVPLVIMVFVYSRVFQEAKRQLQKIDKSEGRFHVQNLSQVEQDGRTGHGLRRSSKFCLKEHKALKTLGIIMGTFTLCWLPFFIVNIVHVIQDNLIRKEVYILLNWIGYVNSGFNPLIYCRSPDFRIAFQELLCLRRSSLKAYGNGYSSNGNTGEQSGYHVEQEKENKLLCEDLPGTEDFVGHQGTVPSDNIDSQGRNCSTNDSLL

Kappa-type opioid receptor (Homo sapiens), sequence (P41145 whole entry): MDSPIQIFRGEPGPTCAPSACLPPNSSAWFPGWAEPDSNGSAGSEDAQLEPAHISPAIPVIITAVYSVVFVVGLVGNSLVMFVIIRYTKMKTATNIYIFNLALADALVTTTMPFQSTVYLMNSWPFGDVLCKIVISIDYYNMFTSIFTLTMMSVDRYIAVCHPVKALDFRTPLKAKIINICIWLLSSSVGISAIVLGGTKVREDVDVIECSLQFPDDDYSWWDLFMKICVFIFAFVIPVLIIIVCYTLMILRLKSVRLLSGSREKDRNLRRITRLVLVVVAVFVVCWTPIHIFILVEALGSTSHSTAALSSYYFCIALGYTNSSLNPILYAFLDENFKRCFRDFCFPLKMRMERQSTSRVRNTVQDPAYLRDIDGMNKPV
Delta-type opioid receptor (Homo sapiens), sequence (P41143 whole entry): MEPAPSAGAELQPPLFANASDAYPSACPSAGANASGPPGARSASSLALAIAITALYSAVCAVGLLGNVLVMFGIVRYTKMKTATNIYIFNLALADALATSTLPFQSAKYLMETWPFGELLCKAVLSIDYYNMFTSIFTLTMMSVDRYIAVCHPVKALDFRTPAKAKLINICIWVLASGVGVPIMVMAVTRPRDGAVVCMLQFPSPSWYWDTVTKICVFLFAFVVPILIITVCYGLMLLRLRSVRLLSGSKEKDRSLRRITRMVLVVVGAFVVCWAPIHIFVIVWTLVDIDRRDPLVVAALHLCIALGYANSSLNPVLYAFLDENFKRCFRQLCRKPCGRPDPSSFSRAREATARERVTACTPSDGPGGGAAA
D(1A) dopamine receptor (Homo sapiens), sequence (P21728 whole entry): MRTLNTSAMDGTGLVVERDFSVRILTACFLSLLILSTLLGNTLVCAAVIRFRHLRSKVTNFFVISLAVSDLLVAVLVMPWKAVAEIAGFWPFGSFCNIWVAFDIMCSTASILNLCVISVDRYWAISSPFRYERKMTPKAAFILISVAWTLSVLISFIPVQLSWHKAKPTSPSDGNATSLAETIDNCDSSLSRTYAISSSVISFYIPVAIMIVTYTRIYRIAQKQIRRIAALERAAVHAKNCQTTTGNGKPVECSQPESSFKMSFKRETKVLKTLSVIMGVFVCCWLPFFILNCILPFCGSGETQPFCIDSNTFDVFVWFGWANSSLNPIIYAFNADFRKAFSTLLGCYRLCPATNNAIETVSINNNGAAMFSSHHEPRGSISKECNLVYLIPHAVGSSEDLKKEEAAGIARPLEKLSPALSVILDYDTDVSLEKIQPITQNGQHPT
Beta-3 adrenergic receptor (Homo sapiens), sequence (P13945 whole entry, looked up): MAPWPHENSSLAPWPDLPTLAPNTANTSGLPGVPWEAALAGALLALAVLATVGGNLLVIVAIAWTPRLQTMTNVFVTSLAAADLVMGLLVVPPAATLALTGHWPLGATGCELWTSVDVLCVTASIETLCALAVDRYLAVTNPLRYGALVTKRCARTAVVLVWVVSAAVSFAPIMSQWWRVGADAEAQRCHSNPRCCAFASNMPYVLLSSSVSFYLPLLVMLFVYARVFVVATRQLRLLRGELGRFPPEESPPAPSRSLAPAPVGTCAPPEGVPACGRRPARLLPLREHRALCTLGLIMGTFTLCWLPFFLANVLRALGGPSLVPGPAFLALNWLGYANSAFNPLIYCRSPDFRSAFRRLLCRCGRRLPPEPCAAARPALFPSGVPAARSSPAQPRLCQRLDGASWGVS

inhibition [2]: inactive | inhibition [4]: inactive | concentration at 0.5 h [5]: 18.6 ng/g | concentration at 2 h [6]: 60.5 ng/g | inhibition [7]: inactive | concentration at 0.5 h [8]: 297 ng/g | solubility [9]: 891 µg/mL | AUC(0-t) [10]: 502 ng·h/mL | concentration at 8 h [11]: 1180 ng/g | inhibition [12]: inactive | inhibition [13]: inactive
Structure (SMILES): O=P([O-])(OC1=Cc2c(Cl)cccc2Sc2ccccc21)OC1=Cc2c(Cl)cccc2Sc2ccccc21.[Na+]
inhibition (Monocyte [1]): Active | inhibition (Monocyte [3]): Active
